In patent publication US20080118591A1, “Bactericidal Formulations” (priority 2004, published 2008):

How the values were obtained:
[1] = system: E. coli; assay: Rapid bactericidal activity of liquid wash formulations; type: cell-based; settings: in formulation IV, 30 s
Experimental: (§1) A control of each formulation is left un-perfumed. The rapid bactericidal activity of these formulations is then tested as follows: • The products are diluted 1:1 in hard water as defined in the European standard EN 1276. This mimics conditions of use on wet hands or wet surfaces in commonly used water. • 500 μl of the product is mixed with 25 μl of a bacterial inoculum containing 2×10^8 cfu/ml (colony forming units). • The mixture is incubated for 30 seconds at 37° C. • 20 μl of the mixture is removed and added to 180 μl neutralising solution (containing 3 g lecithin, 30 g Tween® 80, 5 g sodium thiosulfate, 1 g histidine, 30 g saponin, 8.5 g sodium chloride, 1 g tryptone and 1000 ml water). • The mixture with neutraliser is incubated for 1 min • Serial dilutions of the mixture with neutralising solution are made, and aliquots of these are added to Petri-dishes and embedded in tryptic soy agar containing 0.5% Tween® 80 to inactivate any residual antibacterial compounds. • Bacterial numbers are counted after 24 h incubation at 37° C. and compared to control samples. • Reduction in bacterial viability is determined as described in example 1
Formulations are tested in a dilution of 1:1 and with 30 seconds contact time to bacteria (E. coli). […]

[2] = system: S. aureus; assay: as above; type: cell-based; settings: in formulation IV, 30 s
Experimental: as §1, with “The above formulations are supplemented with 0.9% (w/v) of the perfume composition A of example 2. A” for “A”
Formulation IV of example 3 is supplemented with different concentrations of phenolic biocides and different concentrations of the perfume composition A of example 2. The reduction in viability of various test organisms is determined at different dilutions of the formulation (1:1 or 1:3 to simulate conditions of use) after 30 seconds contact time.

| Structure (SMILES) | rapid bactericidal effect, E. coli 1:1 ([1]; Biocide 0.2%, Perfume 0%) | rapid bactericidal effect, E. coli 1:3 ([1]; Biocide 0.2%, Perfume 0%) | rapid bactericidal effect, E. coli 1:1 ([1]; Biocide 0.2%, Perfume 0.45%) | rapid bactericidal effect, E. coli 1:3 ([1]; Biocide 0.2%, Perfume 0.45%) | rapid bactericidal effect, E. coli 1:1 ([1]; Biocide 0.4%, Perfume 0%) | rapid bactericidal effect, E. coli 1:3 ([1]; Biocide 0.4%, Perfume 0%) | rapid bactericidal effect, E. coli 1:1 ([1]; Biocide 0.4%, Perfume 0.45%) | rapid bactericidal effect, E. coli 1:3 ([1]; Biocide 0.4%, Perfume 0.45%) | rapid bactericidal effect, S. aureus conc. ([2]; Biocide 0.2%, Perfume 0%) | rapid bactericidal effect, S. aureus conc. ([2]; Biocide 0.2%, Perfume 0.45%) | rapid bactericidal effect, S. aureus conc. ([2]; Biocide 0.4%, Perfume 0%) | rapid bactericidal effect, S. aureus conc. ([2]; Biocide 0.4%, Perfume 0.45%) |
| --- | --- | --- | --- | --- | --- | --- | --- | --- | --- | --- | --- | --- |
| Oc1ccc(Cl)cc1Cc1ccccc1 [2-benzyl-4-chlorphenol] | 1 | 1 | >250 | 2 | 18 | 1 | >250 | 4 | 1 | 1 | 3 | 21 |
| Oc1cc(Cl)ccc1Oc1ccc(Cl)cc1Cl [Triclosan, 2,4,4′-trichloro-2′-hydroxy-diphenylether] | 1 | 1 | >250 | 2 | – | – | – | – | 12 | 31 | – | – |
